Biological target: T1, dopamine transporter (Rattus norvegicus, UniProt P23977)
T1 construct: Synaptosomes were prepared by homogenizing fresh tissue in 20 volumes of ice-cold 0.32 M sucrose; from tissue; host or cells: striatal (caudate nucleus) synaptosomes from fresh brain tissue
Test: Test B: uptake of [3H]dopamine and [3H]serotonin into striatal synaptosomes
Format: biochemical
Conditions: dopamine vs serotonin transporter
Experimental: Uptake of [^3H]dopamine and [^3H]serotonin was carried out using synaptosomes from the same brain regions as described above for binding assays. A Krebs phosphate buffer, pH 7.4, containing 1 μM pargyline, dextrose (1.9 mg/ml), and ascorbic acid (0.2 mg/ml) was used. Synaptosomes were prepared by homogenizing fresh tissue in 20 volumes of ice-cold 0.32 M sucrose using a glass-teflon homogenizer. Nuclei and large tissue fragments were removed by centrifugation at 800×g for 10 minutes. The supernatant was centrifuged at 20,000×g for 15 minutes to collect synaptosomes in a pellet. The pellet was resuspended in 0.32 M sucrose at a concentration of 15, 100 or 10 mg/ml original wet weight, and diluted 10 fold in the assay tubes. The final assay volume was 1.0 ml and the duration of incubation at 30° C. was 3 minutes so that uptake was inear with time in contrast to binding assays where binding had reached equilibrium.
Ki values were determined using serial dilutions of the analogues. A thirty minute preincubation of the analogues with the tissue was utilized before uptake was initiated by adding tritiated substrate. The preincubation was utilized to allow analogue and transporters to reach an equilibrium so that kinetic effects were not a significant factor. Ki values were determined using standard techniques.

T1 sequence (P23977 whole entry): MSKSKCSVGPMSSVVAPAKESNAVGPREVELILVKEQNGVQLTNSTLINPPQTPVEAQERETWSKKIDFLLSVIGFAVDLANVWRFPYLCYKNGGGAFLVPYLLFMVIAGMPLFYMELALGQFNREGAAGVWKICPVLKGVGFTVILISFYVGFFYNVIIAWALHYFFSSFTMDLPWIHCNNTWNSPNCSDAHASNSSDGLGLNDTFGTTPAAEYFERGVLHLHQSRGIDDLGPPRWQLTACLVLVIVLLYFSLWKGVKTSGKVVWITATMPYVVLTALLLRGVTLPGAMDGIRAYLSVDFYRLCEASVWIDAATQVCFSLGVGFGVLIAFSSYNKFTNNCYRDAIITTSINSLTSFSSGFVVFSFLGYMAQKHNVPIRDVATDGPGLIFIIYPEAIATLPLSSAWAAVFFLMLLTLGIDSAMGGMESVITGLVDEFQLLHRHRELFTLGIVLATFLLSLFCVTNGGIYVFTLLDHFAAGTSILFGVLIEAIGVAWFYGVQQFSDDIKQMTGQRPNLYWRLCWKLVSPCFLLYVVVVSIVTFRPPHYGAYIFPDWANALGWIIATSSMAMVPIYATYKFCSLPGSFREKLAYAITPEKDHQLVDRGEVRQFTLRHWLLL

Row | SMILES | selectivity for the dopamine transporter relative to the serotonin transporter
1 | Cc1ccc([C@@H]2C[C@@H]3CC[C@H]([C@H]2c2ccccc2)N3C)cc1 [compound 37, (1R, 5S)-2β-Phenyl-3α-(p-tolyl)tropane] | highly selective
2 | CN1[C@H]2CC[C@@H]1[C@@H](c1ccccc1)[C@H](c1ccccc1)C2 [compound 49, (1R,5S)-2β-Phenyl-3α-phenyltropane] | highly selective
